What is called bioavailability is the share of a dose that reaches the circulation, judged against a reference dose that is usually intravenous. Read a high bioavailability as good availability.

Counter-ions that a name gives are not always drawn.

Data set [1] concerns ADP-induced rat platelet aggregation. Briefly: Platelet aggregation inhibition action in rat (ADP-induced aggregation after oral administration). In kind it is in vivo. As to conditions: stimulation with 10 μM ADP; oral: sodium salt of Compound 1 30 mg/kg (blood at 1 hour), beraprost sodium 0.3 mg/kg (0.5 hour); n=6. The procedure:
To determine the dose with which the PGI2-receptor agonistic activity is equivalent between the sodium salt of Compound 1 and beraprost sodium, the platelet aggregation inhibition action which is the major pharmacological action of PGI2-receptor agonists was used as an index for comparison. The sodium salt of Compound 1 (30 mg/kg) or beraprost sodium (0.3 mg/kg) was orally administered to rats fasted for 1 day, and blood was collected therefrom at the time when the plasma level of each compound became maximum, that is, 1 hour after the administration of the sodium salt of Compound 1 (Non-patent Document: J Pharmacol Exp Ther 322:1181-1188 2007) or 0.5 hour after the administration of beraprost sodium (Non-patent Document: Xenobiotic Metabolism and Disposition 6:713-725 1989), followed by measuring ADP-induced rat platelet aggregation. In the both groups, the experiment was carried out with n=6. The sodium salt of Compound 1, which was one of the PGI2-receptor agonists used herein, was synthesized by treating a carboxylic acid with sodium hydroxide, which carboxylic acid was synthesized according to the method described in Patent Document 4.

For data set [2] the following is noted: after oral administration to rats; from cited literature; cited from earlier work.
Data set [3] has as its system rats suffering from chronic renal failure. The experiment in a line: Pharmacological effect in rats suffering from chronic renal failure: renal function, hematocrit, hemoglobin. In kind it is in vivo, WKY rats. As to conditions: for Hematocrit value / Hemoglobin content: oral twice a day from week 2. The procedure: Rabbit anti-rat glomerular basement membrane antiserum (14-fold diluted, 3 mL/kg) was intravenously injected to WKY rats of 8 weeks old, to induce glomerulonephritis. […] Further, creatinine clearance, which is used as an alternative to glomerular filtration rate (GFR), was 2.63±0.07 mL/min. (N=3) in the normal group, and 1.22±0.04 mL/min. (N=21) in the nephritis-induced group. That is, creatinine clearance in the nephritis-induced group decreased to not more than 50% with respect to that of the normal group, and therefore it was confirmed that the nephritis-induced group developed chronic renal failure whose primary disease was glomerulonephritis. Thus, the time of establishment of the chronic renal failure was defined as 2 weeks after the induction of nephritis. […] This stage was the phase in which introduction of dialysis is considered in human, and corresponded to the most serious phase in chronic renal failure in the conservative stage.
Thus, 2 weeks after the induction of nephritis, based on the serum creatinine value, the rats suffering from chronic renal failure were grouped into the normal group (with neither induction of nephritis nor administration, n=4), the control group (administration of only a vehicle, n=7), the group to be treated with the sodium salt of Compound 1 (administration of 30 mg/kg twice a day, n=7) and the group to be treated with beraprost sodium (administration of 0.3 mg/kg twice a day, n=7), after which oral administration of the drugs were begun, followed by daily administration thereof. As the vehicle for the drugs, 0.25% sodium carboxymethylcellulose solution was used.
From 2 weeks after the induction of nephritis when the chronic renal failure was established, until 6 weeks after the induction of nephritis, urine collection and blood collection were carried out as appropriate, and the serum creatinine value, BUN and creatinine clearance were measured for each group to evaluate renal function. Further, the hematocrit, the hemoglobin content, and the SOD activity of the renal tissue, which are closely linked to the diseased state of chronic renal failure, were measured, and the expression level of mRNA of an organic anion transporter OAT-3 was quantified. The SOD activity was measured with the SOD assay kit WST (Dojindo Laboratories), and the expression level of mRNA of OAT-3 was quantified using LightCycler FastStart DNA Master SYBR Green I (Roche).
Six weeks after the induction of nephritis when the chronic renal failure in the conservative stage progressed to a serious phase in the control group, a statistical analysis was carried out. In terms of statistical difference, homoscedasticity was tested by the Bartlett's test between the control group and the respective drug-administered groups. In homoscedastic cases, the parametric Dunnett's test was carried out between the respective drug-administered groups and the control group, while in heteroscedastic cases, the nonparametric Dunnett's test was carried out therebetween, using a significance level of less than 5%.

The subject of a further data set is SOD. Briefly: SOD activity in the renal tissue of rats suffering from chronic renal failure. As to conditions: 6 weeks after induction of nephritis, oral twice a day from week 2, mean ± SE, n=7. The format is in vivo, WKY rats. The protocol:
(§1) Rabbit anti-rat glomerular basement membrane antiserum (14-fold diluted, 3 mL/kg) was intravenously injected to WKY rats of 8 weeks old, to induce glomerulonephritis. […] Further, creatinine clearance, which is used as an alternative to glomerular filtration rate (GFR), was 2.63±0.07 mL/min. (N=3) in the normal group, and 1.22±0.04 mL/min. (N=21) in the nephritis-induced group. That is, creatinine clearance in the nephritis-induced group decreased to not more than 50% with respect to that of the normal group, and therefore it was confirmed that the nephritis-induced group developed chronic renal failure whose primary disease was glomerulonephritis. Thus, the time of establishment of the chronic renal failure was defined as 2 weeks after the induction of nephritis. […]
(§2) From 2 weeks after the induction of nephritis when the chronic renal failure was established, until 6 weeks after the induction of nephritis, urine collection and blood collection were carried out as appropriate, and the serum creatinine value, BUN and creatinine clearance were measured for each group to evaluate renal function. Further, the hematocrit, the hemoglobin content, and the SOD activity of the renal tissue, which are closely linked to the diseased state of chronic renal failure, were measured, and the expression level of mRNA of an organic anion transporter OAT-3 was quantified. […]

The next data set deals with OAT-3. The experiment in a line: Expression level of mRNA of OAT-3 in the renal cortex of rats suffering from chronic renal failure. In kind it is in vivo, WKY rats. As to conditions: 6 weeks after induction of nephritis, oral twice a day from week 2, mean ± SE, n=7, normal group 1.00 ± 0.06. The protocol: as §1, §2
Data set [4] in a line: Plasma level of Compound 1 and bioavailability after administration of Compound 1 and Compound 2 to rats. In kind it is in vivo. As to conditions: rat, 5 mg/kg oral vs Compound 1 1 mg/kg intravenous, Compound 1 measured in plasma, corrected for molecular weight, mean ± SE, n=3. The protocol:
Compound 1 or Compound 2 was orally administered to rats in an amount of 5 mg/kg, and Compound 1 was intravenously administered in an amount of 1 mg/kg, after which the concentration of Compound 1 in plasma was measured. The experiment was carried out with n=3 in each of the both groups. […] Thus, it was shown that Compound 2 can be used in a manner similar to Compound 1. Compound 1 and Compound 2 used in this experiment was synthesized in accordance with the method described in Patent Document 4.

Where [5] appears, read: 6 weeks after induction of nephritis, oral twice a day from week 2 (Compound 1 Na salt 30 mg/kg, beraprost sodium 0.3 mg/kg), mean ± SE, n=7.
[6] abbreviates: 6 weeks after induction of nephritis, mean ± SE, n=7.
The mark [7] stands for this setting: until 6 weeks after the induction of nephritis, 30 mg/kg oral twice a day.

With `CC#CCC(C)[C@H](O)/C=C/[C@@H]1[C@H]2c3cccc(CCCC(=O)O)c3O[C@H]2C[C@H]1O` (mixture of isomers) [Beraprost sodium, reference compound], the “rate of suppression of rat platelet aggregation” value in data set [1] is reported as 64.2±8.3%. In addition, the “time when the plasma level became maximum” value in data set [2] is 0.5 h. For the same compound, in data set [3] (setting [5]), the BUN was determined as 42.1 ± 6.41 mg/dL, the Creatinine clearance was found to be 0.77 ± 0.13 mL/min and the Serum creatinine value stood at 0.85 ± 0.12 mg/dL. Further, in data set [3] (setting [6]), the Hematocrit value is 33.9 ± 0.97% and the Hemoglobin content was 12.3 ± 0.28 g/dL. Further, the “SOD activity (%, taking the activity in the normal group as 100%)” value in the data set on SOD turned out to be 67.9 ± 5.45%. The “Expression level of mRNA of OAT-3 (ratio to that of GAPD)” value in the data set with OAT-3 is recorded as 0.24 ± 0.04.
In data set [4], `CC(C)N(CCCCOCC(=O)O)c1cnc(-c2ccccc2)c(-c2ccccc2)n1` [Compound 1] came in with a bioavailability of 43.3 ± 2.6%.
On to `CC(C)N(CCCCOCC(=O)O)c1cnc(-c2ccccc2)c(-c2ccccc2)n1` [Sodium salt of Compound 1], for which the “rate of suppression of rat platelet aggregation” value in data set [1] was found to be 47.0±7.9%. Besides, the “time when the plasma level became maximum” value in data set [2] is 1 h. For the same compound, in data set [3] (2 weeks after induction of nephritis, at the beginning of the administration (baseline of the treated group)), the Creatinine clearance was 1.21 ± 0.06 mL/min. Further, in data set [3] (setting [5]), the BUN worked out at 26.8 ± 2.49 mg/dL, the Creatinine clearance amounted to 1.48 ± 0.11 mL/min and the Serum creatinine value is given as 0.47 ± 0.04 mg/dL. In addition, the Creatinine clearance in data set [3] (6 weeks after induction of nephritis, oral twice a day from week 2 (Compound 1 Na salt 30 mg/kg, beraprost sodium 0.3 mg/kg), mean ± SE, n=7, listed as sodium salt of Compound 1) is 1.48 ± 0.11 mL/min. In data set [3] (setting [6]), the Hematocrit value is on record as 37.1 ± 0.71 % and the Hemoglobin content is 13.7 ± 0.28 g/dL. Besides, in data set [3] (setting [7]), the “BUN, course compared to control group (FIG. 2)” value was “kept low compared to that in the control group”; the “creatinine clearance, course compared to control group (FIG. 3)” value is “kept high compared to that in the control group”; the “serum creatinine value, course compared to control group (FIG. 1)” value is listed as “kept low compared to that in the control group”. For the same compound, the “SOD activity (%, taking the activity in the normal group as 100%)” value with SOD stood at 83.6 ± 2.52 %. Also, the “Expression level of mRNA of OAT-3 (ratio to that of GAPD)” value in the data set with OAT-3 is given as 0.42 ± 0.05.

(Values after US8575175B2, “Therapeutic agent for chronic renal failure” (Toray Industries, Inc., priority 2008, dated 2013).)
